The text below walks through data of patent US9125913B2, “Bcl-2-selective apoptosis-inducing agents for the treatment of cancer and immune diseases” (AbbVie Inc., priority 2008, dated 2015).

The structures appear in SMILES notation.

This assay concerns GST-Bcl-2. Kind of assay: TR-FRET binding assay, Bcl-2. The following applies: TR-FRET Ki values. The procedure, abridged: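 Compounds serially diluted in DMSO from 50 μM (2× starting concentration, 10% DMSO), mixed with GST-tagged protein, F-Bak peptide probe and Tb-labeled antibody, incubated 3 h at room temperature.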
For orientation: TR-FRET usually uses a lanthanide donor and a delayed reading to cut background.
On to `CC1(C)CCC(CN2CCN(c3ccc(C(=O)NS(=O)(=O)c4ccc(NCC5(O)CCCCC5)c([N+](=O)[O-])c4)c(Oc4ccc5[nH]ccc5c4)c3)CC2)=C(c2ccc(Cl)cc2)C1` [EXAMPLE 238, 4-(4-{[2-(4-chlorophenyl)-4,4-dimethylcyclohex-1-en-1-yl]methyl}piperazin-1-yl)-N-[(4-{[(1-hydroxycyclohexyl)methyl]amino}-3-nitrophenyl)sulfonyl]-2-(1H-indol-5-yloxy)benzamide], for which the “Binding selectivity ratio (Bcl-XL Ki/Bcl-2 Ki)” value (“Binding selectivity ratio” for short) is greater than 1534.3.

As to `COCCNc1ccc(S(=O)(=O)NC(=O)c2ccc(N3CCN(CC4=C(c5ccc(Cl)cc5)CC(C)(C)CC4)CC3)cc2Oc2cccc3[nH]ccc23)cc1[N+](=O)[O-]` [EXAMPLE 239, 4-(4-{[2-(4-chlorophenyl)-4,4-dimethylcyclohex-1-en-1-yl]methyl}piperazin-1-yl)-2-(1H-indol-4-yloxy)-N-({4-[(2-methoxyethyl)amino]-3-nitrophenyl}sulfonyl)benzamide], the “Binding selectivity ratio” value was determined as 430.9.

For the molecule `CC1(C)CCC(CN2CCN(c3ccc(C(=O)NS(=O)(=O)c4ccc(NC5(CO)CCOCC5)c([N+](=O)[O-])c4)c(Oc4ccc5[nH]ccc5c4)c3)CC2)=C(c2ccc(Cl)cc2)C1` [EXAMPLE 240, 4-(4-{[2-(4-chlorophenyl)-4,4-dimethylcyclohex-1-en-1-yl]methyl}piperazin-1-yl)-N-[(4-{[4-(hydroxymethyl)tetrahydro-2H-pyran-4-yl]amino}-3-nitrophenyl)sulfonyl]-2-(1H-indol-5-yloxy)benzamide], the “Binding selectivity ratio” value is greater than 795.4.

`CC1(C)CCC(CN2CCN(c3ccc(C(=O)NS(=O)(=O)c4ccc(NC5(CO)CCOCC5)c([N+](=O)[O-])c4)c(Oc4cccc5[nH]ccc45)c3)CC2)=C(c2ccc(Cl)cc2)C1` [EXAMPLE 241, 4-(4-{[2-(4-chlorophenyl)-4,4-dimethylcyclohex-1-en-1-yl]methyl}piperazin-1-yl)-N-[(4-{[4-(hydroxymethyl)tetrahydro-2H-pyran-4-yl]amino}-3-nitrophenyl)sulfonyl]-2-(1H-indol-4-yloxy)benzamide]: the “Binding selectivity ratio” value is recorded as greater than 108.3.

For the molecule `CC1(C)CCC(CN2CCN(c3ccc(C(=O)NS(=O)(=O)c4ccc(NC(CO)C5CCOCC5)c([N+](=O)[O-])c4)c(Oc4ccc5[nH]ccc5c4)c3)CC2)=C(c2ccc(Cl)cc2)C1` (stereo not shown) [EXAMPLE 242, 4-(4-{[2-(4-chlorophenyl)-4,4-dimethylcyclohex-1-en-1-yl]methyl}piperazin-1-yl)-N-({4-[(2-hydroxy-1-tetrahydro-2H-pyran-4-ylethyl)amino]-3-nitrophenyl}sulfonyl)-2-(1H-indol-5-yloxy)benzamide], the “Binding selectivity ratio” value is greater than 367.6.

As to `CC1(C)CCC(CN2CCN(c3ccc(C(=O)NS(=O)(=O)c4ccc(NC5CCN(CCn6cccn6)CC5)c([N+](=O)[O-])c4)c(Oc4ccc5[nH]ccc5c4)c3)CC2)=C(c2ccc(Cl)cc2)C1` [EXAMPLE 243, 4-(4-{[2-(4-chlorophenyl)-4,4-dimethylcyclohex-1-en-1-yl]methyl}piperazin-1-yl)-2-(1H-indol-5-yloxy)-N-{[3-nitro-4-({1-[2-(1H-pyrazol-1-yl)ethyl]piperidin-4-yl}amino)phenyl]sulfonyl}benzamide], the “Binding selectivity ratio” value is listed as greater than 2357.6.

As to `CC1(C)CCC(CN2CCN(c3ccc(C(=O)NS(=O)(=O)c4ccc(NCC5CCOCC5)c([N+](=O)[O-])c4)c(Oc4cccc5[nH]ccc45)c3)CC2)=C(c2ccc(Cl)cc2)C1` [EXAMPLE 244, 4-(4-{[2-(4-chlorophenyl)-4,4-dimethylcyclohex-1-en-1-yl]methyl}piperazin-1-yl)-2-(1H-indol-4-yloxy)-N-({3-nitro-4-[(tetrahydro-2H-pyran-4-ylmethyl)amino]phenyl}sulfonyl)benzamide], the “Binding selectivity ratio” value is recorded as greater than 4136.9.

Turning to `CNc1ccc(S(=O)(=O)NC(=O)c2ccc(N3CCN(CC4=C(c5ccc(Cl)cc5)CC(C)(C)CC4)CC3)cc2Oc2ccc3[nH]ccc3c2)cc1[N+](=O)[O-]` [EXAMPLE 245, 4-(4-{[2-(4-chlorophenyl)-4,4-dimethylcyclohex-1-en-1-yl]methyl}piperazin-1-yl)-2-(1H-indol-5-yloxy)-N-{[4-(methylamino)-3-nitrophenyl]sulfonyl}benzamide], the “Binding selectivity ratio” value is greater than 408.2.

As to `CNc1ccc(S(=O)(=O)NC(=O)c2ccc(N3CCN(CC4=C(c5ccc(Cl)cc5)CC(C)(C)CC4)CC3)cc2Oc2cccc3[nH]ccc23)cc1[N+](=O)[O-]` [EXAMPLE 246, 4-(4-{[2-(4-chlorophenyl)-4,4-dimethylcyclohex-1-en-1-yl]methyl}piperazin-1-yl)-2-(1H-indol-4-yloxy)-N-{[4-(methylamino)-3-nitrophenyl]sulfonyl}benzamide], the “Binding selectivity ratio” value was 490.9.

As for `CC(c1ccccc1-c1ccc(Cl)cc1)N1CCN(c2ccc(C(=O)NS(=O)(=O)c3ccc(NCCCN4CCOCC4)c([N+](=O)[O-])c3)c(Oc3cccc4[nH]ccc34)c2)CC1` (stereo not shown) [EXAMPLE 247, 4-{4-[1-(4′-chloro-1,1′-biphenyl-2-yl)ethyl]piperazin-1-yl}-2-(1H-indol-4-yloxy)-N-({4-[(3-morpholin-4-ylpropyl)amino]-3-nitrophenyl}sulfonyl)benzamide], the “Binding selectivity ratio” value came to 145.3.

In the case of `O=C(NS(=O)(=O)c1ccc(NCC2CCOCC2)c([N+](=O)[O-])c1)c1ccc(N2CCN(CC3=C(c4ccc(Cl)cc4)CCC(O)C3)CC2)cc1Oc1ccc2[nH]ccc2c1` (stereo not shown) [EXAMPLE 248, 4-(4-{[2-(4-chlorophenyl)-5-hydroxycyclohex-1-en-1-yl]methyl}piperazin-1-yl)-2-(1H-indol-5-yloxy)-N-({3-nitro-4-[(tetrahydro-2H-pyran-4-ylmethyl)amino]phenyl}sulfonyl)benzamide], the “Binding selectivity ratio” value is recorded as 12079.6.

Regarding `O=C(NS(=O)(=O)c1ccc(NCC2CCOCC2)c([N+](=O)[O-])c1)c1ccc(N2CCN(CC3=C(c4ccc(Cl)cc4)CCC(N4CCOCC4)C3)CC2)cc1Oc1ccc2[nH]ccc2c1` (stereo not shown) [EXAMPLE 249, 4-(4-{[2-(4-chlorophenyl)-5-morpholin-4-ylcyclohex-1-en-1-yl]methyl}piperazin-1-yl)-2-(1H-indol-5-yloxy)-N-({3-nitro-4-[(tetrahydro-2H-pyran-4-ylmethyl)amino]phenyl}sulfonyl)benzamide], the “Binding selectivity ratio” value is listed as greater than 7302.0.

With `CC1(C)CCC(CN2CCN(c3ccc(C(=O)NS(=O)(=O)c4ccc(NCC5(N)CCCCC5)c([N+](=O)[O-])c4)c(Oc4ccc5[nH]ccc5c4)c3)CC2)=C(c2ccc(Cl)cc2)C1` [EXAMPLE 250, N-[(4-{[(1-aminocyclohexyl)methyl]amino}-3-nitrophenyl)sulfonyl]-4-(4-{[2-(4-chlorophenyl)-4,4-dimethylcyclohex-1-en-1-yl]methyl}piperazin-1-yl)-2-(1H-indol-5-yloxy)benzamide], the “Binding selectivity ratio” value was determined as 811.

In the case of `CC1(C)CCC(CN2CCN(c3ccc(C(=O)NS(=O)(=O)c4ccc(NCCN5CCCC5=O)c([N+](=O)[O-])c4)c(Oc4ccc5[nH]ccc5c4)c3)CC2)=C(c2ccc(Cl)cc2)C1` [EXAMPLE 251, 4-(4-{[2-(4-chlorophenyl)-4,4-dimethylcyclohex-1-en-1-yl]methyl}piperazin-1-yl)-2-(1H-indol-5-yloxy)-N-[(3-nitro-4-{[2-(2-oxopyrrolidin-1-yl)ethyl]amino}phenyl)sulfonyl]benzamide], the “Binding selectivity ratio” value was 1438.5.

Turning to `CC(c1ccccc1-c1ccc(Cl)cc1)N1CCN(c2ccc(C(=O)NS(=O)(=O)c3ccc(NCC4CCOCC4)c([N+](=O)[O-])c3)c(Oc3ccc4[nH]ccc4c3)c2)CC1` (stereo not shown) [EXAMPLE 252, 4-{4-[1-(4′-chloro-1,1′-biphenyl-2-yl)ethyl]piperazin-1-yl}-2-(1H-indol-5-yloxy)-N-({3-nitro-4-[(tetrahydro-2H-pyran-4-ylmethyl)amino]phenyl}sulfonyl)benzamide], the “Binding selectivity ratio” value is on record as greater than 8570.3.

Take `CC(C1=C(c2ccc(Cl)cc2)CC(C)(C)CC1)N1CCN(c2ccc(C(=O)NS(=O)(=O)c3ccc(NCC4CCOCC4)c([N+](=O)[O-])c3)c(Oc3ccc4[nH]ccc4c3)c2)CC1` (stereo not shown) [EXAMPLE 253, 4-(4-{1-[2-(4-chlorophenyl)-4,4-dimethylcyclohex-1-en-1-yl]ethyl}piperazin-1-yl)-2-(1H-indol-5-yloxy)-N-({3-nitro-4-[(tetrahydro-2H-pyran-4-ylmethyl)amino]phenyl}sulfonyl)benzamide]: the “Binding selectivity ratio” value is given as greater than 4663.3.

With `CC(C1=C(c2ccc(Cl)cc2)CC(C)(C)CC1)N1CCN(c2ccc(C(=O)NS(=O)(=O)c3ccc(NN4CCN(C)CC4)c([N+](=O)[O-])c3)c(Oc3ccc4[nH]ccc4c3)c2)CC1` (stereo not shown) [EXAMPLE 254, 4-(4-{1-[2-(4-chlorophenyl)-4,4-dimethylcyclohex-1-en-1-yl]ethyl}piperazin-1-yl)-2-(1H-indol-5-yloxy)-N-({4-[(4-methylpiperazin-1-yl)amino]-3-nitrophenyl}sulfonyl)benzamide], the “Binding selectivity ratio” value was determined as 421.7.

Regarding `C[C@H](c1ccccc1-c1ccc(Cl)cc1)N1CCN(c2ccc(C(=O)NS(=O)(=O)c3ccc(NCC4CCOCC4)c([N+](=O)[O-])c3)c(Oc3cccc4[nH]ccc34)c2)CC1` [EXAMPLE 255, 4-{4-[(1R)-1-(4′-chloro-1,1′-biphenyl-2-yl)ethyl]piperazin-1-yl}-2-(1H-indol-4-yloxy)-N-({3-nitro-4-[(tetrahydro-2H-pyran-4-ylmethyl)amino]phenyl}sulfonyl)benzamide], the “Binding selectivity ratio” value is listed as greater than 84.2.

For `C[C@@H](c1ccccc1-c1ccc(Cl)cc1)N1CCN(c2ccc(C(=O)NS(=O)(=O)c3ccc(NCC4CCOCC4)c([N+](=O)[O-])c3)c(Oc3cccc4[nH]ccc34)c2)CC1` [EXAMPLE 256, 4-{4-[(1S)-1-(4′-chloro-1,1′-biphenyl-2-yl)ethyl]piperazin-1-yl}-2-(1H-indol-4-yloxy)-N-({3-nitro-4-[(tetrahydro-2H-pyran-4-ylmethyl)amino]phenyl}sulfonyl)benzamide], the “Binding selectivity ratio” value is on record as greater than 5519.8.
